pKd: −log10 of the molar value.
Columns and labels:
[1] = tested on: antigen-specific CD8^+ T cells; assay: OVA-specific CD8+ T cells after co-injection with OVA ([…]-Kb tetramer); format: in vivo, C57BL/6 mice; details: 1 μg with 800 μg OVA, 6 days
Procedure: (A) C57BL/6 mice were co-injected with 1 μg α-GalCer or analog and 800 μg OVA. 6 days later blood samples taken from the tail vein were stained directly ex vivo with fluorescent […]-K^b tetramers and an anti-CD8 antibody and analyzed by flow cytometry. Data are shown as tetramer positive cells as a percentage of CD8^+ cells. (B) 7 days after injection, the mice were challenged in a prophylactic setting with 1×10^6 E.G7-OVA tumour cells s.c. and the size of the tumour monitored over subsequent days.
Previously we, and others have shown that co-injection of model antigens such as OVA (Silk, Hermans et al, J Clin Invest, 2004, 114; 1800-11, Fujii, Shimizu et al, J Exp Med, 2003, 198; 267-79, Hermans, Silk et al, J Immunol, 2003, 171; 5140-7) and β-galactosidase (Silk, Hermans et al, J Clin Invest, 2004, 114; 1800-11) together with α-GalCer induces enhanced CD8^+, CD4^+ T cell and B cell responses. These were effective for therapy against tumour cells expressing the target antigen. The various analogs were co-injected with OVA into wild type mice and 6 days later the blood examined for the presence of antigen-specific CD8^+ T cells using fluorescent K^b-[…] tetramers.

[2] = tested on: IL-4 and IFN-γ; assay: Serum cytokines after i.v. injection into mice (ELISA); format: in vivo, C57BL/6 mice; details: for cytokine release in serum (IL-4, IFN-γ, IL-12p40/70): wild type mice, 1 μg i.v., 2, 6 and 18-24 h
Procedure: C57BL/6 or iNKT^−/− mice were injected i.v. with 1 μg of vehicle, α-GalCer, analog or 25 μg MPL. Twenty hours after injection splenocytes were stained with antibodies against CD11c, B220 and CD86 and analyzed by flow cytometry. (A) Maturation was assessed by the upregulation of CD86 at the cell surface, gating on DC (CD11c^+). Mean fluorescence intensity for each histogram is indicated. These are representative profiles of two independent experiments. 2, 6 and 18-24 h after injection as described, the mice were bled and the serum tested with ELISA for the presence of (B) IL-4 and (C) IFN-γ released in response to the analog.
Stimulation of iNKT cells by α-GalCer in the context of CD1d rapidly induces release of significant levels of a number of cytokines including IFN-γ and IL-4 (Burdin, Brossay et al, J Immunol, 1998, 161; 3271-81), IL-3 and GM-CSF (Leite-de-Moraes, Lisbonne et al, Eur J Immunol, 2002, 32; 1897-904) with other downstream cell-types including DC (Kitamura, Iwakabe et al, J Exp Med, 1999, 189; 1121-8) and NK cells (Carnaud, Lee et al, J Immunol, 1999, 163; 4647-50) being activated.

[3] = tested on: p40 form of IL-12; assay: Example A: IL-12 p40 ELISA as indication of DC stimulation; format: cell-based, human
[4] = tested on: human monocyte derived DCs; assay: Example A: DC maturation markers in human monocyte derived DC with NKT cells (FACS); format: cell-based; details: 100 ng/ml, 36 hours, 10 DC/NKT cell
Procedure: The methodology of Salio, et al., J. Immunol., 167:1188-1197 (2001), incorporated by reference, was followed. In brief, 2×105 human monocyte derived DCs were pulsed with 100 ng/ml of one of Compounds 2, 3, αGal-Cer, or vehicle solution, as a control. For DC pulsing, each of arabinitol ceramide (Compound 1), threitol ceramide (Compound 3), glycerol ceramide (Compound 2) and αGal-Cer was solubilized in vehicle solution (0.5% Tween 20/PBS), and added to the medium of the DC cultures. […] After 36 hours, supernatant was removed from cultures and analyzed for the presence of known DC maturation markers CD83, CD80, CD86, CD25, and CD38, all of which were analyzed via FACS, using well known methods.

[5] = target: T1, human invariant Vα24^+/Vβ11^+ TCR binding to hCD1d-lipid complex (Homo sapiens, UniProt P15813); assay: Surface plasmon resonance (Biacore) of soluble iNKT TCR binding to hCD1d monomers loaded with analogs; details: for pKd: equilibrium binding, read-out: Kd of the TCR binding to the monomer
T1 construct: soluble human CD1d molecules; made in house
Procedure: Affinity and kinetics of iNKT TCR binding to hCD1d complexed with α-GalCer or OCH. Increasing concentrations from 0.4 μM to 194 μM (two-fold dilution) of iNKT TCR were injected for 5 seconds over the indicated hCD1d-GSL complexes. The binding responses of 5 concentrations are shown superimposed. The panels on the right show binding response at equilibrium.
The affinities of a soluble NKT cell TCR for human CD1d molecules refolded with different analogs of α-GalCer were measured. Equilibrium binding and kinetic measurements respectively were made for α-GalCer (A and B), threitolceramide (C and D), 4S-threitolceramide (E and F), 4R-threitolceramide (G and H). The Kd values (μM) were calculated from equilibrium binding. The Kon values shown were calculated from Koff and Kd.
We then assessed whether the length of the acyl and sphingosine chains could affect the affinity of iNKT TCR binding to glycolipid-CD1d complex. We refolded Vα24 and Vβ11 chains of the iNKT TCR as previously described (Gadola, Koch et al, J Exp Med, 2006, 203; 699-710) and used the purified and refolded iNKT TCR in surface plasmon resonance studies against immobilized biotinylated CD1d monomers loaded with either α-GalCer or OCH.
To characterize the affinity of analogs of α-GalCer, biotinylated hCD1d monomers were generated using previously described protocols (Karadimitris, Gadola et al, Proc Natl Acad Sci USA, 2001, 98; 3294-8) bound to the different analogs. Surface plasmon resonance (Biacore) analysis was performed using a soluble disulphide-linked human invariant Vα24^+/Vβ11^+ TCR (Gadola, Koch et al, J Exp Med, 2006, 203; 699-710) to measure the equilibrium dissociation constants (Kd) of binding of the TCR to different monomers (FIG. 3).

[6] = tested on: iNKT cell clone; assay: Cytokine release from iNKT cell clone stimulated with analog-pulsed C1R-human CD1d cells; format: cell-based
Procedure: FIG. 9 Inositol-based α-GalCer derivatives are functional in vitro. Human monocyte-derived DC were pulsed with 150 ng of different inositol analogs and co-cultured with iNKT cells for 24 h. […] Numbers indicate the mean fluorescence intensity of the histogram gated on CD11c^+ cells. 6-Deoxy and 6-Sulfono-myo-inositolceramide induce significant (B) IL-12p40 and (C) IFN-γ production by DC and iNKT cells respectively in the supernatants of co-cultured DC and iNKT cells. […] Release of (D) IFN-g and (E) IL-4 from iNKT cells after 24 h in culture with C1R-human CD1d cells pulsed with α-GalCer, 6-Deoxy- or 6-Sulfono-myo-inositolceramide.
The three inositol compounds were titrated on C1R cells expressing human CD1d and used to stimulate an iNKT cell clone.

[7] = target: human CD1d (Homo sapiens, UniProt P15813); details: acyl and sphingosine chains in A′ and C′ pockets; cited from earlier work

koff ([5]; kinetic measurement, read-out: rate of dissociation (Koff) between the TCR and the monomer) | Compound | antigen-specific CD8+ T cell response [1] | cytokine release in serum (IL-4, IFN-γ, IL-12p40/70) [2] | IL-12 potency, fold less potent than Compound 3 [3] | induction of DC maturation markers (CD83, CD80, CD86, CD25, CD38) [4] | skewing of cytokine response to Th2 ([2]; compared with OCH) | potency of cytokine induction compared with α-GalCer ([2]; equivalent doses) | IL-12 potency relative to αGal-Cer [3] | pKd [5] | rate of dissociation (Koff) between the TCR and the monomer ([5]; kinetic measurement) | concentration at which IFN-γ and IL-4 approach a plateau [6] | shape complementarity (Sc) [7]
 | CCCCCCCCCCCCCCCCCCCCCCCCCC(=O)N[C@@H](COC[C@@H](O)CO)[C@H](O)[C@H](O)CCCCCCCCCCCCCC [Compound 2, Glycerol Ceramide] | did not | did not induce any detectable cytokine release | approximately 1000 fold | DC maturation markers are induced |  |  |  |  |  |  | 
 | CCCCCCCCCCCCCCCCCCCCCCCCCC(=O)N[C@@H](COC[C@H](O)[C@@H](O)CO)[C@H](O)[C@H](O)CCCCCCCCCCCCCC [Compound 3, Threitol Ceramide] | induced a significant CD8^+ T cell response after 6 days, although less potently than α-GalCer | detected in the serum with a similar time-course to that seen with α-GalCer |  | DC maturation markers are induced | Neither compound showed a skewed Th2 cytokine response | less potent than α-GalCer at equivalent doses | approximately 50% | 5.24 | 1.04 s⁻¹ |  | 
0.37 s⁻¹ | CCCCCCCCCCCCCCCCCCCCCCCCCC(=O)N[C@@H](CO[C@H]1OC(CO)[C@H](O)C(O)C1O)[C@H](O)[C@H](O)CCCCCCCCCCCCCC (stereo partly drawn) [α-GalCer, α galactosylceramide, reference compound] |  |  |  |  |  |  |  | 5.89 |  | 200 ng/mL | 0.61

From patent US8039670B2, “Analogs of alpha galactosyceramide and uses thereof” (Ludwig Institute for Cancer Research, priority 2005, dated 2011)
